From ChEMBL document CHEMBL5260858, “Targeting mycobacterial membranes and membrane proteins: Progress and limitations” (Bioorg Med Chem, 2023)
Values after ≈ are worked out from the molar mass of the structure shown.

Legend:
[1] = system: Mycobacterium tuberculosis; experiment: Antitubercular activity against Mycobacterium tuberculosis H37Rv assessed as bacterial growth inhibition incubated for 7 days by microplate alamar blue assay; format: functional; conditions: 168 h, time 7 day
[2] = system: Mycobacterium tuberculosis; experiment: In vivo antimycobacterial activity against Mycobacterium tuberculosis H37Rv infected in C57BL/6 mouse assessed as reduction in bacterial load in spleen at 30 mg/kg, po and measured after 10 days by CFU analysis; format: functional; conditions: time 10 day
[3] = system: Mycobacterium tuberculosis; experiment: In vivo antimycobacterial activity against Mycobacterium tuberculosis H37Rv infected in C57BL/6 mouse assessed as reduction in bacterial load in spleen at 10 mg/kg, po and measured after 10 days by CFU analysis; format: functional; conditions: time 10 day
[4] = system: Mycobacterium tuberculosis; experiment: In vivo antimycobacterial activity against Mycobacterium tuberculosis H37Rv infected in C57BL/6 mouse assessed as reduction in bacterial load in lung at 10 mg/kg, po and measured after 10 days by CFU analysis; format: functional; conditions: time 10 day
[5] = system: Mycolicibacterium smegmatis; experiment: Antitubercular activity against Mycobacterium smegmatis ATCC 607 assessed as zone of inhibition incubated 30 hrs by Kirby-Bauer disc diffusion assay; format: functional
[6] = system: Mycobacterium tuberculosis; experiment: In vivo antimycobacterial activity against Mycobacterium tuberculosis H37Rv infected in C57BL/6 mouse assessed as reduction in bacterial load in lung at 30 mg/kg, po and measured after 10 days by CFU analysis; format: functional; conditions: time 10 day
[7] = system: Mycobacterium tuberculosis; experiment: Antitubercular activity against Mycobacterium tuberculosis CDC1551 assessed as bacterial growth inhibition for 6 days by spectroscopic analysis; format: functional, organism-based; conditions: CDC1551, 144 h
[8] = system: Mycobacterium tuberculosis; experiment: Antitubercular activity against Mycobacterium tuberculosis CDC1551 infected in mouse bone marrow derived macrophage assessed as bacterial growth inhibition for 2 days by spectroscopic analysis; format: functional; conditions: CDC1551, 48 h, time 2 day
[9] = system: Mycobacterium tuberculosis; experiment: In vivo antimycobacterial activity against Mycobacterium tuberculosis H37Rv infected in BALB/c mouse assessed as reduction in bacterial load at 300 mg/kg, po for 5 days; format: functional; conditions: time 5 day
[10] = system: Mycobacterium tuberculosis; experiment: In vivo antimycobacterial activity against Mycobacterium tuberculosis H37Rv infected in BALB/c mouse assessed as reduction in bacterial load at 200 mg/kg, po for 2 weeks; format: functional
[11] = system: Mycobacterium tuberculosis; experiment: Antitubercular activity against Mycobacterium tuberculosis H37Rv ATCC 27294 infected in african green monkey Vero cells assessed as bacterial growth inhibition incubated for 6 days by microplate alamar blue assay; format: functional; conditions: H37Rv ATCC 27294, 144 h, time 6 day
[12] = Selectivity index, ratio of IC50 for cytotoxicity against African green monkey Vero cells to MIC for antitubercular activity against Mycobacterium tuberculosis H37Rv ATCC 27294; format: toxicity, cell-based; conditions: read-out: Selectivity Index
[13] = system: Mycobacterium tuberculosis; experiment: Antitubercular activity against Mycobacterium tuberculosis Erdman ATCC 35801 infected in RAW264.7 cells assessed as inhibition of intracellular bacterial growth incubated for 6 days by microplate alamar blue assay; format: functional; design: scale not given: the % may be the effect or the level left; conditions: time 6 day
[14] = system: Mycobacteroides abscessus; experiment: Antitubercular activity against Mycobacterium abscessus 3321 assessed as bacterial growth inhibition incubated 3 to 5 days by resazurin based broth microdilution method; format: functional; conditions: time 3-5 day
[15] = system: Mycobacteroides abscessus; experiment: Antitubercular activity against Mycobacterium abscessus 1298 assessed as bacterial growth inhibition incubated 3 to 5 days by resazurin based broth microdilution method; format: functional; conditions: time 3-5 day
[16] = system: Mycobacteroides abscessus; experiment: Antitubercular activity against Mycobacterium abscessus CIP104536 assessed as bacterial growth inhibition incubated 3 to 5 days by resazurin based broth microdilution method; format: functional; conditions: time 3-5 day
[17] = system: Mycobacteroides abscessus; experiment: Antitubercular activity against Mycobacterium abscessus 2648 assessed as bacterial growth inhibition incubated 3 to 5 days by resazurin based broth microdilution method; format: functional; conditions: time 3-5 day
[18] = system: Mycobacteroides abscessus; experiment: Antitubercular activity against Mycobacterium abscessus CF assessed as bacterial growth inhibition incubated 3 to 5 days by resazurin based broth microdilution method; format: functional; conditions: time 3-5 day
[19] = system: Mycobacteroides abscessus; experiment: Antitubercular activity against Mycobacterium abscessus 5175 assessed as bacterial growth inhibition incubated 3 to 5 days by resazurin based broth microdilution method; format: functional; conditions: time 3-5 day
[20] = system: Mycobacteroides abscessus; experiment: Antitubercular activity against Mycobacterium abscessus 3022 assessed as bacterial growth inhibition incubated 3 to 5 days by resazurin based broth microdilution method; format: functional; conditions: time 3-5 day
[21] = system: Mycobacteroides abscessus; experiment: Antitubercular activity against Mycobacterium abscessus 2524 assessed as bacterial growth inhibition incubated 3 to 5 days by resazurin based broth microdilution method; format: functional; conditions: time 3-5 day
[22] = system: Mycobacteroides abscessus; experiment: Antitubercular activity against Mycobacterium abscessus 2587 assessed as bacterial growth inhibition incubated 3 to 5 days by resazurin based broth microdilution method; format: functional; conditions: time 3-5 day
[23] = system: Mycobacteroides abscessus; experiment: Antitubercular activity against Mycobacterium abscessus 2069 assessed as bacterial growth inhibition incubated 3 to 5 days by resazurin based broth microdilution method; format: functional; conditions: time 3-5 day
[24] = system: Mycobacterium tuberculosis; experiment: Antitubercular activity against Mycobacterium tuberculosis H37Rv assessed as extracellular bacterial growth inhibition; format: functional
[25] = system: Mycobacterium tuberculosis; experiment: Antitubercular activity against Mycobacterium tuberculosis H37Rv assessed as intracellular bacterial growth inhibition; format: functional
[26] = system: Mycobacterium tuberculosis; experiment: Antimycobacterial activity against Mycobacterium tuberculosis Erdman assessed as bacterial growth inhibition incubated for 7 days by microplate alamar blue assay; format: functional; conditions: 168 h, time 7 day
[27] = system: Mycobacterium avium; experiment: Antimycobacterial activity against Mycobacterium avium assessed as bacterial growth inhibition incubated for 7 days by microplate alamar blue assay; format: functional; conditions: 168 h, time 7 day
[28] = system: Mycobacterium tuberculosis; experiment: In vivo antimycobacterial activity against Mycobacterium tuberculosis Erdman infected in Balb/c mouse assessed as reduction in log10 CFU in lungs at 15 mg/kg,po for 4 weeks […]; format: functional
[29] = system: Mycobacterium tuberculosis; experiment: Antimycobacterial activity against Mycobacterium tuberculosis H37Rv assessed as bacterial growth inhibition incubated for 7 days by microplate alamar blue assay; format: functional; conditions: 168 h, time 7 day
[30] = system: Mycobacterium tuberculosis; experiment: Antitubercular activity against Mycobacterium tuberculosis H37Rv assessed as bacterial growth inhibition incubated for 7 days by resazurin reduction microplate assay; format: functional; conditions: 168 h, time 7 day
[31] = system: Mycobacterium tuberculosis; experiment: Antitubercular activity against Mycobacterium tuberculosis H37Rv infected in BALB/c mouse assessed as reduction in bacterial load at 150 mg/kg, po for 10 days by CFU analysis; format: functional; conditions: time 10 day
[32] = system: Mycobacterium tuberculosis; experiment: In vivo antimycobacterial activity against Mycobacterium tuberculosis H37Rv infected in BALB/c mouse assessed as reduction in bacterial load in spleen at 40 to 100 mg/kg, po and measured after 4 weeks; format: functional; conditions: dose 40-100 mg/kg
[33] = system: Mycobacterium tuberculosis; experiment: Antitubercular activity against Mycobacterium tuberculosis assessed as bacterial growth inhibition in 7H9 medium incubated for 5 days by microplate reader analysis; format: functional; conditions: 120 h, time 5 day
[34] = system: Mycobacterium tuberculosis; experiment: In vivo antimycobacterial activity against Mycobacterium tuberculosis H37Rv infected in BALB/c mouse assessed as reduction in bacterial load in lungs at 40 to 100 mg/kg, po and measured after 4 weeks; format: functional; conditions: dose 40-100 mg/kg
[35] = system: Mycobacterium tuberculosis; experiment: Antitubercular activity against Mycobacterium tuberculosis ATCC 27294 (H37Rv) assessed as bacterial growth inhibition by agar dilution method; format: functional
[36] = system: Mycobacterium tuberculosis; experiment: Antitubercular activity against Mycobacterium tuberculosis H37Rv expressing the luxABCDE operon assessed as bacterial growth inhibition incubated for 5 days in low oxygen condition by LORA Assay; format: functional; conditions: 120 h, time 5 day
[37] = system: Mycobacterium tuberculosis; experiment: Antitubercular activity against Mycobacterium tuberculosis H37Rv expressing the luxABCDE operon infected in human THP-1 cells assessed as reduction in intracellular bacterial load incubated for 72 hrs by luminescence analysis; format: functional, organism-based; conditions: THP-1, 72 h
[38] = system: Mycobacterium tuberculosis; experiment: Antitubercular activity against Mycobacterium tuberculosis H37Rv assessed as bacterial growth inhibition incubated for 6 days by MABA analysis; format: functional; conditions: 144 h, time 6 day
[39] = system: Mycobacterium tuberculosis; experiment: Antitubercular activity against Mycobacterium tuberculosis H37Rv expressing the luxABCDE operon assessed as bacterial growth inhibition incubated for 28 hrs in aerobic condition by luminescence analysis; format: functional
[40] = system: Mycobacterium tuberculosis; experiment: Antitubercular activity against Mycobacterium tuberculosis H37Rv assessed as bacterial growth inhibition incubated for 7 days by Alamar blue based fluorescence assay; format: functional; conditions: 168 h, time 7 day

O=c1cc(-c2ccc(O)cc2)oc2ccc(O)c(CN3CCC3)c12
MIC [1]: 0.45 µg/mL (≈ 1.39 µM)

C=CCN1C(=O)NC(=O)/C(=C/NNC(=O)c2ccncc2)C1=O
Activity [2]: 1.3 log10CFU
Activity [3]: 0.6 log10CFU
Activity [4]: 1 log10CFU
inhibition zone (IZ) [5]: 20 mm
Activity [6]: 2.1 log10CFU

O=C(NCCc1ccc(Cl)cc1)C1(c2cccs2)CCOCC1
EC50 [7]: 6.4 µM
MIC99 [8]: 19.3 µM (≈ 6.75 µg/mL)

CNC(=O)c1c(-c2ccc(O)cc2)oc2ccc(O)c(CN3CCCCC3)c12
Activity [9]: 7 log10CFU
Activity [10]: 6.8 log10CFU

CC(C)=CCC/C(C)=C/CNCCNC1C2CC3CC(C2)CC1C3 (stereo not given) [SQ109]
MIC [11]: 0.7 µM (≈ 0.231 µg/mL)
selectivity ratio [12]: 16.7
Activity [13]: 99%

Cc1ccccc1CN1CCC(O)(c2ccc(Cl)c(C(F)(F)F)c2)CC1
MIC [14]: 0.125 µg/mL (≈ 0.326 µM)
MIC [15]: 0.125 µg/mL (≈ 0.326 µM)
MIC [16]: 0.125 µg/mL (≈ 0.326 µM)
MIC [17]: 0.125 µg/mL (≈ 0.326 µM)
MIC [18]: 0.125 µg/mL (≈ 0.326 µM)
MIC [19]: 0.125 µg/mL (≈ 0.326 µM)
MIC [20]: 0.125 µg/mL (≈ 0.326 µM)
MIC [21]: 0.125 µg/mL (≈ 0.326 µM)
MIC [22]: 0.125 µg/mL (≈ 0.326 µM)
MIC [23]: 0.125 µg/mL (≈ 0.326 µM)

COc1ccc(OCCNC(=O)c2cc([N+](=O)[O-])cc([N+](=O)[O-])c2)cc1
MIC [24]: 0.2 µM (≈ 0.0723 µg/mL)
MIC [25]: 0.2 µM (≈ 0.0723 µg/mL)

O=[N+]([O-])c1cc(C(F)(F)F)cc2c(=S)nc(N3CCC4(CC3)OCCO4)sc12
MIC [26]: 32 µg/mL (≈ 73.8 µM)
MIC [27]: < 0.05 µg/mL
Activity [28]: 3.4 log10CFU
MIC [29]: 0.02 µg/mL (≈ 0.0461 µM)

CCSc1nc(NC)c2ccc(F)c(F)c2n1
MIC [30]: 0.02 µg/mL (≈ 0.0783 µM)
Activity [31]: 0.5 log10CFU

CCOC(=O)NC(=O)c1ccsc1NC(=O)c1nc2ccccc2s1
Activity [32]: 3 log10CFU
MIC [33]: 0.19 µg/mL (≈ 0.506 µM)
Activity [34]: 2 log10CFU
MIC [35]: 0.19 µg/mL (≈ 0.506 µM)

CCOC(=O)c1c(NC(=O)c2c(F)c(F)c(F)c(F)c2F)sc2c1CCN(CC)C2
MIC [36]: > 200 µM
IC50 [37]: 5.6 µM
MIC [38]: 0.69 µM (≈ 0.309 µg/mL)
MIC [39]: 0.23 µM (≈ 0.103 µg/mL)

COc1ncccc1Nc1cc2nc3ccccc3n(-c3ccc(OC(F)(F)F)cc3)c-2c/c1=N\C1CCC(OC)CC1 (stereo not given)
MIC [40]: 0.016 µg/mL (≈ 0.0271 µM)
